These compounds were tested against T1, human TRPV4 (hTRPV4/CHO cells) (Homo sapiens, UniProt Q9HBA0) (assay: Test Example 1: TRPV4 inhibitory activity (IC50 value), 4α-PDD stimulation, Fluo4 calcium fluorescence (FLIPR TETRA)). Conditions: Test Example 1, 4α-PDD stimulation, read-out: Test 1 IC50.
T1 construct: expressed in transfected cells; host or cells: CHO-K1
Type: cell-based

T1 sequence (Q9HBA0 whole entry): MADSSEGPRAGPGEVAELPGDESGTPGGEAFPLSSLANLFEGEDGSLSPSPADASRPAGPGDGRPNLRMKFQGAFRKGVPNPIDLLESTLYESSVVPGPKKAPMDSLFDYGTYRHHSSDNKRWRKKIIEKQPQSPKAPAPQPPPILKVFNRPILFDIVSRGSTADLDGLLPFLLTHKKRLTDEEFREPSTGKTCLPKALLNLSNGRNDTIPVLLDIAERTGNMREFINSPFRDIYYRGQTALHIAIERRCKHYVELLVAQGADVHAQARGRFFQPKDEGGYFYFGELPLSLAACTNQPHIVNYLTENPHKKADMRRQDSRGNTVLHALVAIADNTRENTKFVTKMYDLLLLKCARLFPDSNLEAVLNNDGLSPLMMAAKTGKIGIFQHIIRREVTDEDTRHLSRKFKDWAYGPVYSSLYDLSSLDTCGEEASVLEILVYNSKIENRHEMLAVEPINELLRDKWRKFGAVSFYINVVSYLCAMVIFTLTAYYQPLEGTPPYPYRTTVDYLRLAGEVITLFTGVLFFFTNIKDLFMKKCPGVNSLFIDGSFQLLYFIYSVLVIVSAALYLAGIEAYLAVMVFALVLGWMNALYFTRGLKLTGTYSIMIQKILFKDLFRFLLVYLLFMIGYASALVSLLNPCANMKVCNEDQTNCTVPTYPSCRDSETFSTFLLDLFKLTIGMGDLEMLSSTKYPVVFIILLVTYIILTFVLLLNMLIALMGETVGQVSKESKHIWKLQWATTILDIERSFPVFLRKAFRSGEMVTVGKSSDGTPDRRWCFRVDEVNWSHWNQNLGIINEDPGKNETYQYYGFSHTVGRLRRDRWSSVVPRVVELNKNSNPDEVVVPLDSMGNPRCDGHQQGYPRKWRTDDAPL

IC50 [nM] | Compound
1000 to 8000 | Cc1nc(C)c(-c2csc(NC(=O)[C@H]3C[C@H](c4ccccc4)CN3)n2)s1 [Compound I-192]
100 to 1000 | Cc1nc(C(F)F)sc1-c1csc(NC(=O)C2CCC(C(F)(F)F)CC2)n1 (stereo not shown) [Compound I-543]
100 to 1000 | Cc1nc(C(=N)N)sc1-c1csc(NC(=O)Cc2ccc(S(=O)(=O)C(F)(F)F)cc2)n1 [Compound I-404]
100 to 1000 | COC(=O)NCc1nc(C)c(-c2csc(NC(=O)Cc3ccc(S(=O)(=O)C(F)(F)F)cc3)n2)s1 [Compound I-400]
< 100 | Cc1nc(C)c(-c2csc(NC(=O)C3(F)CN(c4ccc(C(F)(F)F)cc4)C3)n2)s1 (racemic) [Compound I-533]
< 100 | Cc1nc(C)c(-c2csc(NC(=O)Cc3cc(OCC4CC4)cc(C(=O)N[C@H](c4ccccc4)C(F)(F)F)c3)n2)s1 [Compound I-522]
1000 to 8000 | Cc1nc(CO)sc1-c1csc(NC(=O)OC(C)(C)C)n1 [Compound I-30]
1000 to 8000 | Cc1nc(C)c(-c2csc(NC(=O)Cc3cc(OCCN(C)C)cc(C(=O)N[C@H](c4ccccc4)C(F)(F)F)c3)n2)s1 [Compound I-514]
< 100 | N#CCc1nc(CO)sc1-c1csc(NC(=O)C2CN(c3ncc(C(F)(F)F)cn3)C2)n1 [Compound I-395]
100 to 1000 | Cc1nc(CO)sc1-c1csc(NC(=O)C2C[C@H](C(F)(F)F)CN2C(=O)C(F)(F)F)n1 (stereo partly shown) [Compound I-465]
1000 to 8000 | Cc1nc(C)c(-c2csc(NC(=O)Cn3cc(-c4ccccn4)nn3)n2)s1 [Compound I-426]
< 100 | Cc1nc(C)c(-c2csc(NC(=O)C3(C)CCN(c4ccc(C(F)(F)F)cc4)CC3)n2)s1 (racemic) [Compound I-512]
1000 to 8000 | O=C(Nc1nc(-c2cccs2)cs1)C1CC(F)C1 (stereo not shown) [II-7]
100 to 1000 | Cc1nc(C)c(-c2csc(NC(=O)CN3CCCC3c3ccccc3)n2)s1 (stereo not shown) [Compound I-154]
< 100 | Cc1nc(C)c(-c2csc(NC(=O)[C@@H]3C[C@@H](c4ccccc4)CN3C(=O)C(F)(F)F)n2)s1 [Compound I-218]
< 100 | Cc1nc(C)c(-c2csc(NC(=O)Cn3cc(-c4cccc(Cl)c4)cn3)n2)s1 [Compound I-146]
1000 to 8000 | Cc1nc(C)c(-c2csc(NC(Cc3ccc(Cl)cc3)C(=O)N3CCN(C)CC3)n2)s1 (racemic) [II-45]
< 100 | Cc1nc(C)c(-c2csc(NC(=O)Cc3ccc(S(=O)(=O)N(C)c4cccc(Cl)c4)cc3)n2)s1 [Compound I-161]
100 to 1000 | CCNCc1nc(CO)sc1-c1csc(NC(=O)Cc2ccc(S(=O)(=O)C(F)(F)F)cc2)n1 [Compound I-237]
1000 to 8000 | O=C(O)CCc1nc(CO)sc1-c1csc(NC(=O)C2CN(c3ccc(C(F)(F)F)cc3)C2)n1 [Compound I-351]
100 to 1000 | Cc1nc(CC(N)=O)sc1-c1csc(NC(=O)Cc2ccc(S(=O)(=O)C(F)(F)F)cc2)n1 [Compound I-411]
1000 to 8000 | Cc1nc(C(F)F)sc1-c1csc(NC(=O)C2CC2)n1 [Compound I-109]
100 to 1000 | Cc1nc(C)c(-c2csc(NC(=O)[C@@H]3C[C@@H](c4ccccc4)CN3)n2)s1 [Compound I-178]
100 to 1000 | Cc1nc(C(F)F)sc1-c1csc(NC(=O)Cc2ccc(N(C)C)cc2)n1 [Compound I-542]

More lines, now with the values behind:

Compound | IC50 [nM]
Cc1nc([C@H](C)O)sc1-c1csc(NC(=O)Cc2cc(Br)cc(C(=O)N[C@H](c3ccccc3)C(F)(F)F)c2)n1 [Compound I-524] | < 100
COC(=O)N(C)Cc1nc(CO)sc1-c1csc(NC(=O)Cc2ccc(S(=O)(=O)C(F)(F)F)cc2)n1 [Compound I-434] | < 100
Cc1nc(C)c(-c2csc(NC(=O)C3CN(c4ccc(-c5ccccc5)nn4)C3)n2)s1 [Compound I-285] | 100 to 1000
Cc1nc(CO)sc1-c1csc(NC(=O)Cc2cnc(C(F)(F)F)cn2)n1 [Compound I-410] | < 100
Cc1nc(C)c(-c2csc(NC(=O)Cn3cc(-c4ccncc4)cn3)n2)s1 [Compound I-168] | 100 to 1000
Cc1nc(CO)sc1-c1csc(NC(=O)CN2Cc3ccccc3C2)n1 [Compound I-241] | 100 to 1000
Cc1nc(C(=O)NCCN(C)C)c(-c2csc(NC(=O)Cc3c(F)cccc3F)n2)s1 [Compound I-188] | 1000 to 8000
Cc1nc(C)c(-c2csc(NC(=O)Cc3ccc(C(F)(F)F)cc3)n2)o1 [Compound I-139] | 100 to 1000
N#CCc1nc(CO)sc1-c1csc(NC(=O)C2CN(c3ccc(C(F)(F)F)cc3)C2)n1 [Compound I-334] | < 100
CCOCC(=O)NCc1nc(CO)sc1-c1csc(NC(=O)Cc2ccc(S(=O)(=O)C(F)(F)F)cc2)n1 [Compound I-438] | < 100
O=C(Nc1nc(-c2sc(CO)nc2CO)cs1)[C@@H]1C[C@@H](c2ccccc2)CN1C(=O)OCC(F)(F)F [Compound I-336] | 100 to 1000
Cc1nc(C)c(-c2csc(NC(=O)[C@@H]3C[C@@H](Oc4ccccc4)CN3)n2)s1 [Compound I-244] | 100 to 1000
NC(=O)OCC(=O)NCc1nc(CO)sc1-c1csc(NC(=O)Cc2ccc(S(=O)(=O)C(F)(F)F)cc2)n1 [Compound I-440] | 100 to 1000
Cc1nc(C)c(-c2csc(NC(=O)Cc3ccccc3C#N)n2)s1 [Compound I-121] | 100 to 1000
Cc1nc(C)c(-c2csc(NC(=O)Cn3cc(C4(O)CCCCC4)nn3)n2)s1 [Compound I-189] | 1000 to 8000
Cc1nc(CO)c(-c2csc(NC(=O)Cc3c(F)cccc3F)n2)s1 [Compound I-96] | 100 to 1000
Cc1nc(CO)sc1-c1csc(NC(=O)[C@H]2C[C@@H](OCc3ccc(C(F)(F)F)cc3)C2)n1 [Compound I-335] | < 100
Cc1nc(C)c(-c2csc(NC(=O)N(C)c3c(F)cccc3F)n2)s1 [Compound I-91] | 1000 to 8000
Cc1nc(C)c(-c2csc(NCC3Cc4ccccc4C3)n2)s1 [II-49] | < 100
Cc1nc(CN)sc1-c1csc(NC(=O)Cc2ccc(S(=O)(=O)C(F)(F)F)cc2)n1 [Compound I-396] | < 100
O=C(Nc1nc(-c2sc(CO)nc2CCCN2CCOCC2)cs1)C1CN(c2ccc(C(F)(F)F)cc2)C1 [Compound I-352] | < 100
Cc1nc(C)c(-c2csc(NC(=O)Cc3ccc(F)c(C#N)c3)n2)s1 [Compound I-78] | < 100
O=C(Nc1nc(-c2sc(CO)nc2CO)cs1)[C@H]1C[C@H](OCc2ccccc2)C1 [Compound I-548] | 100 to 1000
Cc1nc(C)c(-c2csc(NC(=O)Cc3ccc(C(F)(F)F)cn3)n2)s1 [Compound I-118] | 100 to 1000
Cc1nc(C)c(-c2csc(Nc3ccncc3)n2)s1 [II-41] | 1000 to 8000
C=C(C)c1nc(C)sc1-c1csc(NC(=O)Cc2c(F)cccc2F)n1 [Compound I-545] | 100 to 1000

Compound | IC50 [nM]
Cc1nc(C)c(-c2csc(NCC3Cc4cc(Cl)ccc4O3)n2)s1 (racemic) [II-48] | < 100
Cc1nc(CO)sc1-c1csc(NC(=O)[C@H]2C[C@@H](OCc3ccc(Cl)cc3)C2)n1 [Compound I-331] | < 100
O=C(Cc1ccc(S(=O)(=O)C(F)(F)F)cc1)Nc1nc(-c2sc(CO)nc2/C=C/CO)cs1 [Compound I-320] | < 100
Cc1nc(C)c(-c2csc(NC(=O)Cc3ccc(NC(=O)c4ccccc4)cc3)n2)s1 [Compound I-413] | 100 to 1000
Cc1nc(C)c(-c2nc(NC(=O)Cc3c(F)cccc3F)sc2C)s1 [Compound I-72] | 1000 to 8000
Cc1nc(C)c(-c2csc(NC(=O)Cc3ccc(S(=O)(=O)N(C)c4ccccc4Cl)cc3)n2)s1 [Compound I-162] | < 100
Cc1nc(C)c(-c2csc(NC(=O)Cn3cc(-c4ccccc4S(C)(=O)=O)cn3)n2)s1 [Compound I-166] | 100 to 1000
Cc1nc(C)c(-c2nc(NC(=O)Cc3c(F)cccc3F)sc2C2=CCCCC2)s1 [Compound I-537] | 1000 to 8000
O=C(CO)NCc1nc(CO)sc1-c1csc(NC(=O)Cc2ccc(S(=O)(=O)C(F)(F)F)cc2)n1 [Compound I-383] | 100 to 1000
Cc1nc(C)c(-c2csc(NC(Cc3ccc(Cl)cc3)C(=O)Nc3ccccc3)n2)s1 (racemic) [II-44] | 1000 to 8000
Cc1nc(C)c(-c2csc(NC(=O)C3CN(c4cnc(C(F)(F)F)cn4)C3)n2)s1 [Compound I-534] | < 100
Cc1nc(C)c(-c2nc(NC(=O)Cc3c(F)cccc3F)sc2-c2ccc(N(C)C)cc2)s1 [Compound I-67] | 1000 to 8000
Cc1nc(C)c(-c2csc(NC(=O)[C@@H]3C[C@@H](N4CCC(c5ccccc5)CC4)CN3C(=O)OC(C)(C)C)n2)s1 [Compound I-272] | < 100
COC(=O)N1C[C@H](c2ccccc2)C[C@H]1C(=O)Nc1nc(-c2sc(C)nc2C)cs1 [Compound I-288] | < 100
Cc1nc(C)c(-c2csc(NC(=O)N3CC(F)C3)n2)s1 [Compound I-90] | 1000 to 8000
O=C(Nc1nc(-c2sc(CO)nc2CO)cs1)[C@@H]1C[C@@H](c2ccccc2)CN1S(=O)(=O)C(F)(F)F [Compound I-338] | 100 to 1000
Cc1nc(CO)oc1-c1csc(NC(=O)Cn2cc(C(F)(F)F)cn2)n1 [Compound I-419] | 1000 to 8000
Cc1nc(C)c(-c2nc(NC(=O)Cc3c(F)cccc3F)sc2CO)s1 [Compound I-74] | 1000 to 8000
CNC(=O)c1nc(C)c(-c2csc(NC(=O)Cc3c(F)cccc3F)n2)s1 [Compound I-113] | 1000 to 8000
CCOC(=O)c1nc(C)c(-c2csc(NC(=O)C3Oc4cc(Cl)c(Cl)cc4O3)n2)s1 [Compound I-270] | 100 to 1000
Cc1ncsc1-c1csc(NC(=O)Cc2c(F)cccc2F)n1 [Compound I-540] | 100 to 1000
O=C(Cc1ccc(S(=O)(=O)C(F)(F)F)cc1)Nc1nc(-c2sc(CO)nc2CCCN2CCOCC2)cs1 [Compound I-377] | < 100
Cc1nc(C)c(-c2csc(NC(=O)CC3CN(Cc4ccc(C(F)(F)F)cc4)C3)n2)s1 [Compound I-491] | 1000 to 8000
Cc1nc(CO)sc1-c1csc(NC(=O)CC2CCN(S(=O)(=O)CCC(F)(F)F)CC2)n1 [Compound I-452] | 1000 to 8000
Cc1nc(CO)sc1-c1csc(NC(=O)C2CN(S(=O)(=O)c3ccccc3C(F)(F)F)C2)n1 [Compound I-305] | 100 to 1000
Cc1nc(CO)sc1-c1csc(NC(=O)C2CCN(S(=O)(=O)C(F)(F)F)C2)n1 (stereo not shown) [Compound I-214] | 100 to 1000
